From patent US20210147842A1, “METHODS AND COMPOSITIONS FOR INHIBITING NECROPTOSIS IN NEUROVASCULAR AND/OR NEURODEGENERATIVE DISEASES OR DISORDERS” (President and Fellows of Harvard College, priority 2019, published 2021)
Peptide text beside a SMILES is read from it. * marks the point of attachment. Cbz = O=C(OCc1ccccc1)*

How the values were obtained:
Type in all cases: cell-based, mouse
[1] = tested on: A20; assay: A20 protein level and degradation in bEnd.3 cells (western blot, cycloheximide chase); conditions: for A20 protein levels in Nat1-KD cells: Nat1-KD bEnd.3 cells, chloroquine 10 uM, E64d 5 ug/ml, sodium acetate over 24 h
Procedure: (§1) Nat1-KD in bEnd.3 cells were conducted by lentivirus transfection with Nat1 shRNA. Ctrl group was transfected with lentivirus expressing scrambled shRNA. The efficiency of Nat-1 KD was confirmed by western blotting (WB). TNFα(100 ng/ml) was applied in Ctrl or Nat-KD cells for 24 h with or without Ripk1 inhibitor, Nec1s (10 uM). Cell death was quantified with SYTOX green staining. […] Using Tandem Mass Tag (TMT) isobaric labeling mass spectrometry (MS), we identified 7707 proteins in Nat1-KD and Ctrl bEND.3 cells. […] Nat1-KD or Ctrl bEnd.3 cells were treated with Flag-TNFα (50 ng/ml) as the indicated time course. Ripk1 activation was examined by the blotting of p-S166 Ripk1 for cell lysates.
Panels b and c show bEnd.3 cells treated with cycloheximide (CHX, 250 ug/ml) to investigate the degradation kinetics of A20. […] Panels e and f show Chloroquine (CQ, 10 uM) and E64d (5 ug/ml) applied for inhibiting lysosomal protein degradation.
(§2) Since A20 is an important suppressor of RIPK1 activation, RIPK1 activation and Complex I assembly were next assessed in Nat1-KD or Ctrl bEnd.3 cells treated with TNFα.
To understand the mechanism by which A20 is decreased in Nat1-KD cells, it was first assessed whether this alteration was occurring at the protein or mRNA level. […] Nat1-KD and Ctrl bEnd.3 cells were treated with cycloheximide to investigate the kinetics of A20 degradation.

[2] = tested on: bEnd.3 cells; assay: TNFα-induced cell death in bEnd.3 cells (SYTOX green); conditions: Nat1-KD bEnd.3 cells, TNFα 100 ng/ml; Nec1s 10 uM, 24 h; sodium acetate in culture medium
Procedure: Nat1-KD in bEnd.3 cells were conducted by lentivirus transfection with Nat1 shRNA. Ctrl group was transfected with lentivirus expressing scrambled shRNA. The efficiency of Nat-1 KD was confirmed by western blotting (WB). […] Cell death was quantified with SYTOX green staining. […] Ripk1 activation was examined by the blotting of p-S166 Ripk1 for cell lysates.
Mitochondria was stained with MitoTracker and imaged in live cells. […] For lysine acetylation, we first of all adjusted the protein concentrations to equalize A20 input in cell lysates of ctrl and Nat1-KD groups. Anti-acetylated lysine antibody was used for IP and anti-A20 antibody was used for WB.

[3] = tested on: acetyl coenzyme A (acetyl-CoA); assay: Acetyl-CoA concentration in bEnd.3 cells; conditions: Nat1-KD bEnd.3 cells, sodium acetate over 24 h
Procedure: FIG. 9A-H: Decreased acetylation of A20 promotes the susceptibility of Nat-1 KD cells to TNFα induced cell death. […] Mitochondria was stained with MitoTracker and imaged in live cells. The scale bar represents 20 and 5 um, respectively. […] For N-terminal acetylation, subtiligase reaction as described in Yi et al. Cell 146, 607-620 (2011) was used. Biotin was added into the free N-terminal residue. […] For lysine acetylation, we first of all adjusted the protein concentrations to equalize A20 input in cell lysates of ctrl and Nat1-KD groups. Anti-acetylated lysine antibody was used for IP and anti-A20 antibody was used for WB. […] Nat1-KD bEnd.3 cells were treated with flag-TNFα (100 ng/ml) as the indicated time course. […]
Analysis of Nat1 knockout mice previously reported increased mitochondrial damage and fragmentation (Camporez, J. P. et al. Proceedings of the National Academy of Sciences of the United States of America 114, E11285-E11292 (2017)). […] Since Nat1 deficiency affects metabolism which may affect the cellular levels of acetyl-CoA, the concentration of total acetyl-CoA in Nat1-KD cells was determined. […] Further, supplementation with sodium acetate is also able to rescue the hyperactivation of RIPK1 in Nat1-KD cells in response to TNFα, as measured by RIPK1 ubiquitination (FIG. 9G). […]

[4] = tested on: RIPK1; assay: RIPK1 activation (p-S166, ubiquitination in complex I) in TNFα-treated bEnd.3 cells; conditions: Nat1-KD bEnd.3 cells, sodium acetate 100 mM, flag-TNFα 100 ng/ml
Procedure: as §1
Mitochondria was stained with MitoTracker and imaged in live cells. […] For N-terminal acetylation, subtiligase reaction as described in Yi et al. Cell 146, 607-620 (2011) was used. Biotin was added into the free N-terminal residue. […] For lysine acetylation, we first of all adjusted the protein concentrations to equalize A20 input in cell lysates of ctrl and Nat1-KD groups. Anti-acetylated lysine antibody was used for IP and anti-A20 antibody was used for WB. […]
as §2

[5] = tested on: Nat1 mRNA; assay: Nat1 mRNA expression in bEnd.3 cells; conditions: for insulin-induced Nat1 mRNA up-regulation: applied half an hour prior to insulin, MK-2206 5 uM, rapamycin 250 nM, oligomeric Aβ1-42 100 nM
From the text: FIG. 7: N-acetyltransferase 1 (Nat1) expression decreases in the brain ECs of AD. […] Fluorescence activated cell sorting (FACS) was used to isolate ECs (CD31^high and CD45^low) from single cell suspensions of brain tissues. The differentially expressed genes between APP/PS1 and WT groups were compared using edgeR and 116 genes were identified. […] Panels c and d show the expression of Nat1 protein (mouse)/Nat2 protein (human) in brain microvessels decreases during AD pathogenesis. Microvessels from mouse or human brains were isolated as described in Munikoti, et al. Journal of neuroscience methods 207, 80-85 (2012) and Boulay et al. Journal of visualized experiments: JoVE, e53208 (2015). […] Different concentrations of insulin were applied into the culture medium for 18 h. […] MK-2206(5 uM, Akt inhibitor), Repamycin (250 nM, mTOR inhibitor) or oligomeric Aβ1-42 (100 nM) was applied to the culture medium of bEnd.3 cells half an hour prior to the treatment of insulin.
To understand the mechanisms that mediate cerebral EC death and dysfunction in the pathogenesis of AD, fluorescence-activated cell sorting (FACS) was used to isolate ECs from the cerebrum of wild-type (WT) and APPswePSEN1dE9 (APP/PS1) mice (5-6 months of age). RNA sequencing (RNAseq) was used to profile gene expression between these groups, and differential gene expression was analyzed using edgeR (as described in Robinson, M. D., et al. Bioinformatics 26, 139-140 (2010)) (FIG. 7A). […] The decrease in Nat1 mRNA expression in cerebral ECs during AD pathogenesis was further confirmed by quantitative PCR (qPCR) (FIG. 7B). […] To validate the relevance of this finding in human AD pathogenesis, protein levels of NAT2 (the human homolog of mouse NAT1) in microvessels isolated from the brains of AD patients were assessed and compared to age-matched controls. […] To determine whether Nat1 expression might also be insulin-sensitive in immortalized mouse cerebral ECs (bEnd.3 cells), it was assessed whether increased concentrations of insulin could upregulate Nat1 (FIG. 7E).

`CCOC(=O)[C@H]1O[C@@H]1C(=O)N[C@@H](CC(C)C)C(=O)NCCC(C)C` [E64D] was tested, and the “A20 protein levels in Nat1-KD cells” value [1] was “rescued”.

In the case of `CN1C(=O)NC(Cc2c[nH]c3c(Cl)cccc23)C1=O` (centres unmarked) [Nec-1s], the “TNFα-induced cell death in Nat1-KD cells” value [2] is reported as “rescued”.

In the case of `CCN(CC)CCCC(C)Nc1ccnc2cc(Cl)ccc12` (centres unmarked) [chloroquine], the “A20 protein levels in Nat1-KD cells” value [1] is reported as “rescued”.

With `CC(=O)[O-].[Na+]` [sodium acetate] the “TNFα-induced cell death in Nat1-KD cells” value [2] was “rescues”, the “A20 protein levels in Nat1-KD cells” value [1] was “rescue” and the “acetyl-CoA in Nat1-KD cells” value [3] was “rescue”. For the same compound, the “hyperactivation of RIPK1 in response to TNFα, as measured by RIPK1 ubiquitination” value [4] was “rescue”.

With “insulin: exogenous insulin applied into the culture medium” the “Nat1 mRNA expression” value ([5]; different concentrations in culture medium, 18 h) was “increases”.

For `CC(C)C[C@@H](C=O)NC(=O)[C@H](CC(C)C)NC(=O)[C@H](CC(C)C)NC(=O)OCc1ccccc1` [MG132] (Cbz-Leu-Leu-Leu-aldehyde), the “protein expression of A20” value ([1]; both Ctrl and Nat1-KD bEnd.3 cells, MG132 10 uM) was “reduced”.

For “oligomeric Aβ1-42: oligomeric amyloid beta 1-42”, the “insulin-induced Nat1 mRNA up-regulation” value [5] was “blocked”.

`NC1(c2ccc(-c3nc4ccn5c(=O)[nH]nc5c4cc3-c3ccccc3)cc2)CCC1` [MK-2206] was tested, and the “insulin-induced Nat1 mRNA up-regulation” value [5] was “negated”.
